Source: patent publication US12421269B2, “SGLT2/DPP4 inhibitor and application thereof” (CGeneTech (Suzhou, China) CO., Ltd., priority 2019, dated 2025)

What was measured:
Human-SGLT1 = target: T1, Human-SGLT1 (Homo sapiens, UniProt P13866); assay: SGLT1 glucose transport assay ([14C]-labeled glucose uptake); format: cell-based; conditions: cells stably expressing Human-SGLT1, 37° C., 2 hours
T1 sequence (P13866 1-664): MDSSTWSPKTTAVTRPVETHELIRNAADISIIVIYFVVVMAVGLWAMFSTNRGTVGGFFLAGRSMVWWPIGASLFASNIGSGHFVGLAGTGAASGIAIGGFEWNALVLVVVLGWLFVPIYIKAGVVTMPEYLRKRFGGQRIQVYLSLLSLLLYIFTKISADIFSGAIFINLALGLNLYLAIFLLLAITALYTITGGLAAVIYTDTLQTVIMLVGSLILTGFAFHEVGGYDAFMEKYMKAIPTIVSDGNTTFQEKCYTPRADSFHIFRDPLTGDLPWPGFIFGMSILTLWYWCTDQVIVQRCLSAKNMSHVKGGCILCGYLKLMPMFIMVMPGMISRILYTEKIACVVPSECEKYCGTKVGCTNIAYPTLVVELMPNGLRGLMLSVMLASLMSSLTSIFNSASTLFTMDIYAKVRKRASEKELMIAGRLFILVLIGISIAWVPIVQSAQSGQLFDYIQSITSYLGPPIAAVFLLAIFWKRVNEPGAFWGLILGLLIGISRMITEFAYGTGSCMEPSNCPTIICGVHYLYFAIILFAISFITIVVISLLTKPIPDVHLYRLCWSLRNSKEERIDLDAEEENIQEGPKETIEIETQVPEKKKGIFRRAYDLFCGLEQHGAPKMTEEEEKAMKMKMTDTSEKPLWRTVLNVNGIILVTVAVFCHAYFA
Procedure: To test the effect of compounds on the glucose transport activity of SGLT1 transporters by measuring the amount of [^14C]-labeled glucose entering highly expressed Human-SGLT1 cells.
The cells stably expressing Human-SGLT1 used for the experiments were constructed by WuXi AppTec Shanghai. The SGLT1 cells were plated in Cytostar-T (PerkinElmer) 96-well cell culture plates and cultured overnight at 5% CO2, 37° C.
(§1) Experimental buffer: 10 mM 4-hydroxyethylpiperazine ethanesulfonic acid (HEPES), 1.2 mM magnesium chloride (MgCl2), 4.7 mM potassium chloride (KCl), 2.2 mM calcium chloride (CaCl2) and 120 mM sodium chloride (NaCl).
The compounds were diluted with 100% dimethyl sulfoxide (DMSO) at a starting concentration of 1 mM, 8 points of 5-fold serial gradient dilution was made.
3 μM [^14C]-labeled methyl α-D-glucopyranoside (Methyl a-D-glucopyranosid) was prepared with experimental buffer.
Cells were treated with 49 μL of experimental buffer, 1 μL of gradient-diluted compound and 50 μL of 3 μM [^14C]-isotope-labeled glucose solution at 37° C. for 2 hours.
Readings were taken with an isotope detector (Micro beta Reader).
The data were calculated by GraphPad Prism 5.0 software using the formula: log(inhibitor) vs. response—Variable slope to obtain the IC50 values of the tested compounds, and the experimental results are shown in Table 5.

Human-SGLT2 = target: T2, Human-SGLT2 (Homo sapiens, UniProt P31639); assay: SGLT2 glucose transport assay ([14C]-labeled glucose uptake); format: cell-based; conditions: cells stably expressing Human-SGLT2, 37° C., 2 hours
T2 sequence (P31639 1-672): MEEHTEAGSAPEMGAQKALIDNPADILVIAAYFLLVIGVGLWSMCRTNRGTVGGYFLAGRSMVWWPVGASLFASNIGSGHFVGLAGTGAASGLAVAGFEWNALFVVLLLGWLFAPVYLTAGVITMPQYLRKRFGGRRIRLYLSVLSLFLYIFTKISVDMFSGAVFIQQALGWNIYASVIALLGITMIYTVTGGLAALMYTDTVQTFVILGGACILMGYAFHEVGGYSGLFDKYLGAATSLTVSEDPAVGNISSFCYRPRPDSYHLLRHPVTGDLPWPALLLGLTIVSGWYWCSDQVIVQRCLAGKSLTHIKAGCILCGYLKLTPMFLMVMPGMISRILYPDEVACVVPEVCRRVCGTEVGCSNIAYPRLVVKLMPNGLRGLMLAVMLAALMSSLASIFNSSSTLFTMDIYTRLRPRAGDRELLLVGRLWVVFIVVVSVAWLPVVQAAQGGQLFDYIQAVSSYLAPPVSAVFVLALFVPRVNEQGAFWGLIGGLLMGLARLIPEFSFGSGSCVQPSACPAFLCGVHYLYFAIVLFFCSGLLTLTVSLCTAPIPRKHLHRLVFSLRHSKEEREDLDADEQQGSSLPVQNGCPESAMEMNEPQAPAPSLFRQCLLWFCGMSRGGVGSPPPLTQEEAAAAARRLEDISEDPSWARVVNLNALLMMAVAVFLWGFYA
Procedure: To test the effect of compounds on the glucose transport activity of SGLT2 transporters by measuring the amount of [^14C]-labeled glucose entering highly expressed Human-SGLT2 cells.
The cells stably expressing Human-SGLT2 used for the experiments were constructed by WuXi AppTec Shanghai. SGLT2 cells were plated in 96-well cell culture plates (Greiner) and cultured overnight at 5% CO2, 37° C.
as §1
Termination buffer: 10 mM 4-hydroxyethylpiperazine ethanesulfonic acid (HEPES), 1.2 mM magnesium chloride (MgCl2), 4.7 mM potassium chloride (KCl), 2.2 mM calcium chloride (CaCl2), 120 mM sodium chloride (NaCl) and 1 μM LX4211.
The compounds were diluted with 100% dimethyl sulfoxide (DMSO) at a starting concentration of 10 μM, 8 points of 5-fold serial gradient dilution was made.
6 μM [^14C]-labeled methyl α-D-glucopyranoside was prepared with experimental buffer.
Cells were treated with 49 μL of experimental buffer, 1 μL of gradient-diluted compound, and 50 μL of 6 μM [^14C]-isotope-labeled glucose solution at 37° C. for 2 hours.
The liquid in the wells was aspirated and the cells were washed 3 times with termination buffer.
The cells were lysed with 50 μL of 10% sodium hydroxide solution, and the cell lysate was aspirated into a scintillation tube, and 2 mL of scintillation solution was added.
Readings were taken with an isotope detector (Tricarb).
The data were calculated by GraphPad Prism 5.0 software using the formula: log (inhibitor) vs. response—Variable slope to obtain the IC50 values of the tested compounds, and the experimental results are shown in Table 5.

| IC50 (Human-SGLT1) [nM] | IC50 (Human-SGLT2) [nM] | SMILES |
| --- | --- | --- |
| 298 | 7.02 | CS[C@H]1O[C@@H](c2cc(Cc3ccc(O[C@@H]4CCN([C@H]5CO[C@H](c6cc(F)ccc6F)[C@@H](N)C5)C4)cc3)c(F)cc2F)[C@H](O)[C@@H](O)[C@@H]1O [WX006] |
| 1280 | 21.8 | CS[C@H]1O[C@@H](c2ccc(F)c(Cc3ccc(O[C@@H]4CCN([C@H]5CO[C@H](c6cc(F)ccc6F)[C@@H](N)C5)C4)cc3)c2)[C@H](O)[C@@H](O)[C@@H]1O [WX001] |
